Results on one molecule are retold here after publication PMC7614683, “A small molecule PI3Kα activator for cardioprotection and neuroregeneration” (Nature, 2023).

Common to all, as to assay: SelectScreen Z-LYTE kinase activity assay (SI Table 6)
Common to all, as to format: biochemical

Assay [1] deals with T1, protein kinases of the Z-LYTE panel (Homo sapiens, UniProt Q9UHD2).
T1 sequence (Q9UHD2 1-729): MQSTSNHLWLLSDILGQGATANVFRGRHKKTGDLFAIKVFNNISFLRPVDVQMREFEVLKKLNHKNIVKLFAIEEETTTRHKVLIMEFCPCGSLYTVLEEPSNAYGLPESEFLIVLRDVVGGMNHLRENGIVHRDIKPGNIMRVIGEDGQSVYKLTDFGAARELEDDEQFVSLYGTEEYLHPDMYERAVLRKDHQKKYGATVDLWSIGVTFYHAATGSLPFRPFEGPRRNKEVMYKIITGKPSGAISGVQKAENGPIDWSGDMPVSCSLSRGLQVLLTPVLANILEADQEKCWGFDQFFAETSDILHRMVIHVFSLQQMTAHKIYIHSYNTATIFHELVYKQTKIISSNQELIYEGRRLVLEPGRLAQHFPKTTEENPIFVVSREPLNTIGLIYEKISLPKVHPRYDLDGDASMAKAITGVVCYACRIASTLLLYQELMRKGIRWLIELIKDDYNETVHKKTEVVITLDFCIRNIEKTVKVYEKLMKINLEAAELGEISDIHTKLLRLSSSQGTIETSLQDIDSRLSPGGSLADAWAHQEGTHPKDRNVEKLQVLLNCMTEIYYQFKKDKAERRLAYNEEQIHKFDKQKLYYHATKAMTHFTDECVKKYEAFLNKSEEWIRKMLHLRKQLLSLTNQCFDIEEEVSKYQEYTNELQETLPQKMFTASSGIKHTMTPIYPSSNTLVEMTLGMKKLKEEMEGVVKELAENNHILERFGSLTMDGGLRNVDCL
The method in brief: (§1)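 Percent effect values derive from SelectScreen Adapta, Lantha and Z-LYTE assays in which 1938 was present at 1 μM, spanning 133 protein kinases and 7 lipid kinases.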

Assay [2] concerns the target T2, protein kinases of the Z-LYTE panel (Homo sapiens, UniProt Q12866).
T2 sequence (Q12866 21-999): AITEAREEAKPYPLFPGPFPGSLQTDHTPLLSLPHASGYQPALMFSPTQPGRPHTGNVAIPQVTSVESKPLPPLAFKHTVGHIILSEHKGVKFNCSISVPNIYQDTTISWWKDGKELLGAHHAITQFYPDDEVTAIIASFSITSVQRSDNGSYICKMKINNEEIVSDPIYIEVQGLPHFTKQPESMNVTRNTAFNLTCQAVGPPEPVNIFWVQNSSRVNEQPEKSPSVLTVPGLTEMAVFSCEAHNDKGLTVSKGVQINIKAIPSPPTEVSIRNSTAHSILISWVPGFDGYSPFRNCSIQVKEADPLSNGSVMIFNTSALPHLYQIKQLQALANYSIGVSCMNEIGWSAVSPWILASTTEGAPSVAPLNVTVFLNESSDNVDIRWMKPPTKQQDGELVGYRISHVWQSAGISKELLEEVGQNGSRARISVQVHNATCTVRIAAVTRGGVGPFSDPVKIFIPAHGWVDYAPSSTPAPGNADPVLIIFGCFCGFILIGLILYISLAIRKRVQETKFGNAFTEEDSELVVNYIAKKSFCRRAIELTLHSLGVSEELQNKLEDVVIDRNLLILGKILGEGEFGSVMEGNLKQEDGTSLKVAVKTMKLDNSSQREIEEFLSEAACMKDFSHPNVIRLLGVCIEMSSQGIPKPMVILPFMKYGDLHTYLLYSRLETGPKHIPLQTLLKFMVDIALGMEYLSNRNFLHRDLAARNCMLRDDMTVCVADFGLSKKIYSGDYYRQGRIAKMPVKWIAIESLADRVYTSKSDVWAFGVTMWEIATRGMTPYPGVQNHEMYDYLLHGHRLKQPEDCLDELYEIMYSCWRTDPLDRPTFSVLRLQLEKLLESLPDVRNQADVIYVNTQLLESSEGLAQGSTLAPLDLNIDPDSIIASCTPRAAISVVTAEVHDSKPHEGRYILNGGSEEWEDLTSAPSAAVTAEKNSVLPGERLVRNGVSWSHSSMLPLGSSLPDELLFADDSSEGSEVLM
The method in brief:
as §1

Assay [3] has as its target protein kinases of the Z-LYTE panel (Homo sapiens, UniProt P45983). The following applies: MAPK8 (JNK1), 1000 nM, [ATP] 100 μM. The procedure, abridged:
as §1

The structures appear in SMILES notation. Read-outs that look alike come from different tables or passages of the source.

Sequence of protein kinases of the Z-LYTE panel (Homo sapiens, UniProt P45983) (P45983 whole entry): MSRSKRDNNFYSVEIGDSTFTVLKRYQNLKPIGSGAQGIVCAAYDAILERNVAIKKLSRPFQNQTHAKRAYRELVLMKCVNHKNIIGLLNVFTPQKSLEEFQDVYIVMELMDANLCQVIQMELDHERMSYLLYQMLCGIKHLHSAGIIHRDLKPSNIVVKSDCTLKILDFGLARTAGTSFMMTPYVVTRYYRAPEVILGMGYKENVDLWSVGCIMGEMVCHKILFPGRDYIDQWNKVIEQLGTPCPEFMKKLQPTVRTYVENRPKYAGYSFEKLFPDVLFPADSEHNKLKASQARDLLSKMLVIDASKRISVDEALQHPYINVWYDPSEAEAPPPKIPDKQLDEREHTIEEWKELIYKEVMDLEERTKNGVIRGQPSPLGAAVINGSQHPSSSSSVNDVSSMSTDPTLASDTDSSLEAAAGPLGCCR

Consider `CCN1CCN(c2ccc(Nc3cc(Nc4cccc5c4N(C(C)=O)CC5)ccn3)cc2)CC1` [Compound 1938], for which the inhibition at 1 µM stood at 4% in assay [1] (read-out: % Inhibition Point 1); 7.54% in assay [1] (read-out: % Inhibition Point 2); 6% in assay [1] (read-out: % Inhibition mean); 12% in assay [2] (read-out: % Inhibition Point 1); 9% in assay [2] (read-out: % Inhibition Point 2); 11% in assay [2] (read-out: % Inhibition mean). In addition, the inhibition at 1 µM in assay [3] (read-out: % Inhibition Point 1) came out at 28%; in assay [3] (read-out: % Inhibition Point 2), 32%; in assay [3] (read-out: % Inhibition mean) it was 30%.
